{
  "source": "patent US8828355B2",
  "about": "“Imaging reporters of transgene expression” (University of Utah Research Foundation, priority 2004, dated 2014)",
  "origin": "cited, not measured here",
  "key": {"Maltose binding protein": {"molecular_target": "Maltose binding protein (Escherichia coli, UniProt P0AEX9)", "conditions": "specificity"}, "[1]": {"molecular_target": "Mutant maltose binding protein, combination of both these mutations (Escherichia coli, UniProt P0AEX9, DEL198-201/M347A/Q351A/Y202G)", "conditions": "read-out: KD for maltotriose"}},
  "data": [
    {"compound": "OC[C@H]1O[C@@](CO)(O[C@H]2O[C@H](CO)[C@@H](O)[C@H](O)[C@H]2O)[C@@H](O)[C@@H]1O", "note": "[sucrose]", "values": [
      {"measurement": "binding to maltose binding protein", "setting": "Maltose binding protein", "result": "not to bind"}
    ]},
    {"compound": "OC[C@H]1O[C@@H](O[C@H]2[C@H](O)[C@@H](O)C(O)O[C@@H]2CO)[C@H](O)[C@@H](O)[C@H]1O", "note": "(stereo partly shown) [lactose]", "values": [
      {"measurement": "binding to maltose binding protein", "setting": "Maltose binding protein", "result": "not to bind"}
    ]},
    {"compound": "OC[C@H]1O[C@H](O[C@H]2[C@H](O)[C@@H](O)[C@H](O)O[C@@H]2CO)[C@H](O)[C@@H](O)[C@@H]1O", "note": "[maltose]", "values": [
      {"measurement": "clearance from the body", "setting": "infused", "result": "rapidly cleared from the body by the kidney"},
      {"measurement": "distribution after infusion", "setting": "infused", "result": "distributed in the extracellular space"},
      {"measurement": "safety of intravenous infusion", "setting": "intravenous infusion", "result": "safe"}
    ]},
    {"compound": "OC[C@H]1O[C@H](O[C@H]2O[C@H](CO)[C@@H](O)[C@H](O)[C@H]2O)[C@H](O)[C@@H](O)[C@@H]1O", "note": "[trehalose]", "values": [
      {"measurement": "binding to maltose binding protein", "setting": "Maltose binding protein", "result": "not to bind"}
    ]},
    {"compound": "maltotriose", "values": [
      {"measurement": "Kd", "setting": "[1]", "result": 6, "unit": "nM"}
    ]}
  ]
}
